According to paper PMC4763238, “Resveratrol induces autophagy by directly inhibiting mTOR through ATP competition” (Scientific Reports, 2016):
pIC50: −log10 of the molar value.

Molecular target: T1, mTOR (Homo sapiens, UniProt P42345)
T1 construct: GST-tagged recombinant fragment mTOR, some regulatory domains deleted, intact kinase domain; also immunoprecipitated full-length HA-mTOR
Test: in vitro kinase assay (GST-S6K or 4E-BP1 phosphorylation), with ATP competition and a resistant mutant
Format: biochemical

T1 sequence (P42345 1360-2549): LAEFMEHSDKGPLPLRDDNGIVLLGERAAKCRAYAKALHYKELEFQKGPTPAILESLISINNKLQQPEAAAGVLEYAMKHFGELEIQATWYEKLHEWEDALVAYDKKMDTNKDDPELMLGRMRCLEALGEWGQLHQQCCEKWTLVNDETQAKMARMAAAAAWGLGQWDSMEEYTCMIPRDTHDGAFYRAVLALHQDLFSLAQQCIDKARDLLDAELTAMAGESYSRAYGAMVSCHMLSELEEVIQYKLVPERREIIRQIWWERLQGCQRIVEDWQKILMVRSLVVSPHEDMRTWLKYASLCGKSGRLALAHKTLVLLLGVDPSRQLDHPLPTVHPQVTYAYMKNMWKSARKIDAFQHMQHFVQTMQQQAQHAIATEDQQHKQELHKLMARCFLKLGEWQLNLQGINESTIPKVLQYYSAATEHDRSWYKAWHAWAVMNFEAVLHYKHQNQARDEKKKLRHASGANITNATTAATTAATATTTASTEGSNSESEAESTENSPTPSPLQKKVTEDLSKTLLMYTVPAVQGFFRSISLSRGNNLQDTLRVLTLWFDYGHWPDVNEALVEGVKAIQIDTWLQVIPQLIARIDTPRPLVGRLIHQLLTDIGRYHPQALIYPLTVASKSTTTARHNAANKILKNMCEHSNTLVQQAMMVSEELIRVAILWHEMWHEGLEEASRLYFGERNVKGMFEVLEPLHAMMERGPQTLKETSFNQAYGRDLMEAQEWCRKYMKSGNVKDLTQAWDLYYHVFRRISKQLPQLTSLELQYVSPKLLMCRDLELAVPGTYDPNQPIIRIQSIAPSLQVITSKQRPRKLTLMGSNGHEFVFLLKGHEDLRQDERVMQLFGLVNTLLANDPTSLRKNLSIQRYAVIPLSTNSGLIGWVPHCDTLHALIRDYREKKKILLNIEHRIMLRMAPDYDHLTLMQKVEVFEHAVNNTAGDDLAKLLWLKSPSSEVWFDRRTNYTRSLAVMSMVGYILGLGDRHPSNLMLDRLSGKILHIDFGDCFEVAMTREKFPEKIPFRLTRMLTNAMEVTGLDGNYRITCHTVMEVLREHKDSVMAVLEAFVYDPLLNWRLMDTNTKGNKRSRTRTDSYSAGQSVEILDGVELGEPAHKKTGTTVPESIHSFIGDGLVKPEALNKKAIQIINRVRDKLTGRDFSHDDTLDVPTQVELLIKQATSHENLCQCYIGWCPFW

Oc1ccc(/C=C/c2cc(O)cc(O)c2)cc1 [resveratrol, 3,40,5-trihydroxy-trans-stilbene]
pIC50: ~5.00
